# System: anxiety-like responding in rats
# Assay: Light-dark box emergence test after foot shock stress (anxiety-like responding)
# Format: in vivo, male Sprague-Dawley rats
# Conditions: WAY100635 i.p. 15 min before VEH; P<0.05
# Text: Animal procedures complied with the Canadian Council on Animal Care, and the protocols were approved by the Institutional Animal Care Committee at University of Guelph. Animal studies are reported in compliance with the ARRIVE guidelines (Kilkenny et al., 2010; McGrath and Lilley, 2015). A total of 200 näive male Sprague-Dawley rats, obtained from Charles River Laboratories (St Constant, Quebec), were used for all in vivo studies. Rats were individually housed (for acute nausea studies) or pair-housed [for anticipatory nausea and light-dark emergence studies] in home cages made of opaque white plastic (48×26×20 cm), containing bed-o-cob bedding from Harlan Laboratories, Inc. (Mississauga, Ontario), a brown paper towel, and Crinkl'Nest™ from The Andersons, Inc. (Maumee, Ohio). Additionally, in the home cage, rats were provided with a soft white paper container that was 14 cm long and 12 cm in diameter. All rats were subjected to an ambient temperature of 21° C. and a 12/12 h light-dark schedule (lights off at 07:00 h) and maintained on food (Highland Rat Chow [8640]) and water ad libitum. For the acute and anticipatory nausea studies, their body weights ranged from 263 to 329 g on the day of conditioning. For the light-dark emergence studies, their body weights ranged from 320 to 387 g on the day of test.
# For the in vivo experiment 3, anxiolytic-like responding was evaluated using the light-dark emergence apparatus, which consisted of an opaque white plastic rectangular box that was divided into two compartments: a small (25 cm wide×20.5 cm long×20.5 cm high) enclosed dark box built of opaque black plastic with a door (8 cm wide×10 cm high) leading to a larger (39.5 cm long×25 cm wide) open lit box. The open lit box was illuminated by one lamp (with a 60 W bulb, 180 lux in the light chamber) positioned 115 cm above the center of the lit box. A video camera was mounted over the top of the light-dark box, and the video tapes were analyzed by the Ethovision software (Noldus Information Technology, Leesburg, Va., USA) for the duration of time spent in the light box for the 5 min test. For the foot shock (FS) session, the rats were placed in sound attenuating MED Associates fear conditioning chambers (St. Albans, Vt., USA). The 6 min FS session consisted of six 0.8 mA foot shocks delivered 1 min apart. Each 0.5 s shock was preceded by a 30 s auditory tone (90 Db, 5000 Hz) as described by Bluett et al. (2014).
# The effect of CBDA and HU-580 on anxiety-like responding was evaluated using the light-dark box emergence test following either foot shock stress or no foot shock (No FS) stress. […]
structure (smiles),measurement,value
"COc1ccccc1N1CCN(CCN(C(=O)C2CCCCC2)c2ccccn2)CC1 [WAY100635, reference compound]",Time spent in the light box after foot shock (FS) stress vs No FS,spent less time in the light box following FS stress than following No FS stress
